The assay concerns L1210 leukemia ip in BDF1 mice, survival T/C. Put plainly: NCI In Vivo Anticancer Drug Screen. Data for tumor model L1210 Leukemia (intraperitoneal) in B6D2F1 (BDF1) mice. The note with it: endpoint: mean survival time, higher = longer survival. In a few lines: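 In this screen, tumor-bearing mice given compound are compared to those given vehicle, and their survival values are reported as a treated-to-control quotient.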

Setting [1] is: dose: 100.0 mg/kg/injection, schedule: Q01DX001 (ip), vehicle: Klucel (hydroxypropylcellulose) (HPC).
Setting [2] is: dose: 200.0 mg/kg/injection, schedule: Q01DX001 (ip), vehicle: Klucel (hydroxypropylcellulose) (HPC).
[3] abbreviates: dose: 400.0 mg/kg/injection, schedule: Q01DX001 (ip), vehicle: Klucel (hydroxypropylcellulose) (HPC).
The mark [4] stands for this setting: dose: 100.0 mg/kg/injection, schedule: Q04DX003 (ip), vehicle: saline with Tween-80.
The mark [5] stands for this setting: dose: 200.0 mg/kg/injection, schedule: Q04DX003 (ip), vehicle: saline with Tween-80.
[6] abbreviates: dose: 50.0 mg/kg/injection, schedule: Q01DX009 (ip), vehicle: saline.
Where [7] appears, read: dose: 100.0 mg/kg/injection, schedule: Q01DX009 (ip), vehicle: saline.
[8] abbreviates: dose: 100.0 mg/kg/injection, schedule: Q04DX003 (ip), vehicle: saline.
The mark [9] stands for this setting: dose: 200.0 mg/kg/injection, schedule: Q01DX009 (ip), vehicle: saline.
Setting [10] is: dose: 200.0 mg/kg/injection, schedule: Q04DX003 (ip), vehicle: saline.
Setting [11] is: dose: 400.0 mg/kg/injection, schedule: Q04DX003 (ip), vehicle: saline.

The structures appear in SMILES notation. Values joined by “and” are separate entries in the source; they are usually repeats but may differ in a detail not shown here. Identical values can stand only once. Inconclusive results and toxic doses are left out.

For `O=C(CCCCCCCCC(=O)NCC1(c2ccccc2)CCNCC1)NCC1(c2ccccc2)CCNCC1`, the T/C runs as follows: (dose: 1.25 mg/kg/injection, schedule: Q01DX Z (ip), vehicle: saline) 89 % of control; (dose: 2.5 mg/kg/injection, schedule: Q01DX Z (ip), vehicle: saline) 88 % of control; (dose: 10.0 mg/kg/injection, schedule: Q01DX Z (ip), vehicle: saline) 97 % of control and 88 % of control; (dose: 30.0 mg/kg/injection, schedule: Q01DX Z (ip), vehicle: saline) 87 % of control.
For the compound `O=C(CCCOc1ccccc1)NCc1ccccc1[N+](=O)[O-]`, the T/C reads like this: under setting [1], 92 % of control; under setting [2], 96 % of control; under setting [3], 102 % of control.
As to `O=C(O)c1ccc2c(c1)C(=O)c1ccccc1C2=O`, the T/C by setting is: (dose: 100.0 mg/kg/injection, schedule: Q04DX002 (ip), vehicle: saline with Tween-80) 105 % of control; (dose: 200.0 mg/kg/injection, schedule: Q04DX002 (ip), vehicle: saline with Tween-80) 99 % of control.
With `Cc1ccc(C2CCCCC2OS(=O)(=O)c2ccc(C)cc2)cc1` (stereo unspecified), the T/C runs as follows: (dose: 100.0 mg/kg/injection, schedule: Q01DX001 (ip), vehicle: steriod suspending solution) 102 % of control; (dose: 200.0 mg/kg/injection, schedule: Q01DX001 (ip), vehicle: steriod suspending solution) 95 % of control; (dose: 400.0 mg/kg/injection, schedule: Q01DX001 (ip), vehicle: steriod suspending solution) 109 % of control.
As to `CN(C)C=Nc1ncnc2[nH]ncc12`, the T/C runs as follows: under setting [4], 107 % of control; (dose: 150.0 mg/kg/injection, schedule: Q04DX003 (ip), vehicle: saline with Tween-80) 107 % of control; under setting [5], 123 % of control; (dose: 250.0 mg/kg/injection, schedule: Q04DX003 (ip), vehicle: saline with Tween-80) 123 % of control.
Take `COc1ccc2c(n1)Sc1c(Cl)nc(Cl)nc1N2`: the T/C by setting is: under setting [1], 95 % of control; under setting [2], 93 % of control; under setting [3], 98 % of control.
As for `OC1OC(COC(c2ccccc2)(c2ccccc2)c2ccccc2)C(O)C(O)C1O` (stereo unspecified), the T/C is, setting by setting: under setting [6], 95 % of control; (dose: 100.0 mg/kg/injection, schedule: Q01DX009 (ip), vehicle: saline with Tween-80) 100 % of control and 102 % of control; under setting [7], 98 % of control; under setting [4], 102 % of control; under setting [8], 102 % of control; (dose: 100.0 mg/kg/injection, schedule: Q04DX003 (ip), vehicle: water) 105 % of control. Besides, the T/C reads like this: (dose: 200.0 mg/kg/injection, schedule: Q01DX009 (ip), vehicle: saline with Tween-80) 95 % of control and 96 % of control; under setting [9], 95 % of control; under setting [5], 96 % of control; under setting [10], 93 % of control; (dose: 200.0 mg/kg/injection, schedule: Q04DX003 (ip), vehicle: water) 97 % of control; (dose: 400.0 mg/kg/injection, schedule: Q01DX009 (ip), vehicle: saline with Tween-80) 104 % of control. In addition, the T/C is 94 % of control (dose: 400.0 mg/kg/injection, schedule: Q04DX003 (ip), vehicle: saline with Tween-80) and 96 % of control (dose: 400.0 mg/kg/injection, schedule: Q04DX003 (ip), vehicle: water).
Turning to `Cc1cc(Cl)ccc1NC(=O)OCCOc1ccc([N+](=O)[O-])cc1`, the T/C was 107 % of control (dose: 12.5 mg/kg/injection, schedule: Q01DX009 (ip), vehicle: saline with Tween-80); 91 % of control (dose: 25.0 mg/kg/injection, schedule: Q01DX009 (ip), vehicle: saline with Tween-80); 110 % of control (dose: 50.0 mg/kg/injection, schedule: Q01DX009 (ip), vehicle: saline with Tween-80).
In the case of `COc1cc(C(=O)NCc2cccs2)cc(OC)c1OC`, the T/C reads like this: (dose: 100.0 mg/kg/injection, schedule: Q04DX002 (ip), vehicle: Klucel (hydroxypropylcellulose) (HPC)) 102 % of control; (dose: 200.0 mg/kg/injection, schedule: Q04DX002 (ip), vehicle: Klucel (hydroxypropylcellulose) (HPC)) 94 % of control; (dose: 400.0 mg/kg/injection, schedule: Q04DX002 (ip), vehicle: Klucel (hydroxypropylcellulose) (HPC)) 94 % of control.
With `CCN(CC)CCOC(=O)c1cc2ccccc2s1`, the T/C is 94 % of control (dose: 100.0 mg/kg/injection, schedule: Q01DX001 (ip), vehicle: saline); 102 % of control (dose: 200.0 mg/kg/injection, schedule: Q01DX001 (ip), vehicle: saline); 96 % of control (dose: 400.0 mg/kg/injection, schedule: Q01DX001 (ip), vehicle: saline).
For `CC(O)C(=O)OCCOc1ccc(Cl)cc1Cl` (stereo unspecified), the T/C by setting is: under setting [6], 670 % of control; under setting [7], 91 % of control; under setting [8], 100 % of control; under setting [9], 95 % of control; under setting [10], 100 % of control; under setting [11], 97 % of control.
With `CN=NC(C)(c1ccc(Cl)cc1)C(C)(N=NC)c1ccc(Cl)cc1` (stereo unspecified), the T/C runs as follows: (dose: 17.5 mg/kg/injection, schedule: Q01DX009 (ip), vehicle: Klucel (hydroxypropylcellulose) (HPC)) 92 % of control; (dose: 35.0 mg/kg/injection, schedule: Q01DX009 (ip), vehicle: Klucel (hydroxypropylcellulose) (HPC)) 103 % of control; (dose: 70.0 mg/kg/injection, schedule: Q01DX009 (ip), vehicle: Klucel (hydroxypropylcellulose) (HPC)) 100 % of control.
On to `O=C(O)CN1C(=O)NC(C2CC2)(C2CC2)C1=O`, for which the T/C is, setting by setting: (dose: 100.0 mg/kg/injection, schedule: Q04DX003 (ip), vehicle: acetone) 100 % of control; (dose: 200.0 mg/kg/injection, schedule: Q04DX003 (ip), vehicle: acetone) 96 % of control; (dose: 400.0 mg/kg/injection, schedule: Q04DX003 (ip), vehicle: acetone) 100 % of control.
Take `CCOC(=O)C1CCC1C(=O)OCC` (stereo unspecified): the T/C is 95 % of control under setting [6]; 95 % of control under setting [7]; 96 % of control under setting [8]; 94 % of control under setting [9]; 102 % of control under setting [10]; 102 % of control under setting [11].
Turning to `CCCCCCCCCCCCOP(N)(=O)OCCCCCCCCCCCC`, the T/C was 90 % of control under setting [6]; 88 % of control under setting [7]; 94 % of control under setting [8]; 88 % of control under setting [9]; 90 % of control under setting [10].
With `Oc1ccc(C2CCCCCC2)cc1`, the T/C (dose: 12.5 mg/kg/injection, schedule: Q01DX001 (ip), vehicle: carboxymethylcellulose (CMC)) is 97 % of control and the T/C (dose: 25.0 mg/kg/injection, schedule: Q01DX001 (ip), vehicle: carboxymethylcellulose (CMC)) is 103 % of control.
On to `CCCCC(=O)N(CC(C)C)CC(C)C`, for which the T/C is 95 % of control (dose: 25.0 mg/kg/injection, schedule: Q04DX002 (ip), vehicle: carboxymethylcellulose (CMC)); 95 % of control (dose: 50.0 mg/kg/injection, schedule: Q01DX001 (ip), vehicle: carboxymethylcellulose (CMC)); 98 % of control and 120 % of control (dose: 50.0 mg/kg/injection, schedule: Q01DX009 (ip), vehicle: carboxymethylcellulose (CMC)); 100 % of control and 102 % of control (dose: 50.0 mg/kg/injection, schedule: Q04DX002 (ip), vehicle: carboxymethylcellulose (CMC)); 101 % of control (dose: 50.0 mg/kg/injection, schedule: Q04DX003 (ip), vehicle: carboxymethylcellulose (CMC)); 97 % of control (dose: 100.0 mg/kg/injection, schedule: Q01DX001 (ip), vehicle: carboxymethylcellulose (CMC)). Also, the T/C by setting is: (dose: 100.0 mg/kg/injection, schedule: Q01DX009 (ip), vehicle: carboxymethylcellulose (CMC)) 95 % of control and 103 % of control; (dose: 100.0 mg/kg/injection, schedule: Q04DX002 (ip), vehicle: carboxymethylcellulose (CMC)) 98 % of control and 103 % of control and 105 % of control; (dose: 100.0 mg/kg/injection, schedule: Q04DX003 (ip), vehicle: carboxymethylcellulose (CMC)) 95 % of control; (dose: 200.0 mg/kg/injection, schedule: Q01DX001 (ip), vehicle: carboxymethylcellulose (CMC)) 88 % of control; (dose: 200.0 mg/kg/injection, schedule: Q01DX009 (ip), vehicle: carboxymethylcellulose (CMC)) 103 % of control and 92 % of control; (dose: 200.0 mg/kg/injection, schedule: Q04DX002 (ip), vehicle: carboxymethylcellulose (CMC)) 92 % of control. For the same compound, the T/C reads like this: (dose: 200.0 mg/kg/injection, schedule: Q04DX003 (ip), vehicle: carboxymethylcellulose (CMC)) 101 % of control; (dose: 400.0 mg/kg/injection, schedule: Q04DX002 (ip), vehicle: carboxymethylcellulose (CMC)) 102 % of control.

Source of the values: PubChem BioAssay AID248 (DTP/NCI, 2004).
